Experiment: xn = mol fraction of the nth substance listed
Conditions: Gas, Buoyancy - hydrostatic balance with magnetic suspension - one sinker

N#N [nitrogen] + O=C=O
Conditions | mass density [kg/m3]
250.01 K, 994.48 kPa, x2 = 0.2 | 15.21
250.02 K, 1979.3 kPa, x2 = 0.2 | 30.827
250.02 K, 4032.4 kPa, x2 = 0.2 | 65.204
250.02 K, 6013.2 kPa, x2 = 0.2 | 100.543
250.02 K, 8000.9 kPa, x2 = 0.2 | 137.785
250.02 K, 10004 kPa, x2 = 0.2 | 176.401
250.02 K, 12010 kPa, x2 = 0.2 | 215.101
250.02 K, 14018 kPa, x2 = 0.2 | 252.741
250.02 K, 16027 kPa, x2 = 0.2 | 288.385
250.02 K, 18039 kPa, x2 = 0.2 | 321.449
250.02 K, 19633 kPa, x2 = 0.2 | 345.629
250.04 K, 2996.3 kPa, x2 = 0.2 | 47.559
250.04 K, 4997.5 kPa, x2 = 0.2 | 82.144
250.05 K, 488.24 kPa, x2 = 0.2 | 7.397
250.05 K, 997.91 kPa, x2 = 0.2 | 15.262
250.05 K, 6997.7 kPa, x2 = 0.2 | 118.767
250.05 K, 8998.8 kPa, x2 = 0.2 | 156.893
250.05 K, 11001 kPa, x2 = 0.2 | 195.63
250.05 K, 13005 kPa, x2 = 0.2 | 233.864
250.05 K, 15008 kPa, x2 = 0.2 | 270.511
250.05 K, 17012 kPa, x2 = 0.2 | 304.796
250.05 K, 17639 kPa, x2 = 0.2 | 314.981
274.99 K, 998.23 kPa, x2 = 0.2 | 13.8
274.99 K, 1987.8 kPa, x2 = 0.2 | 27.804
274.99 K, 3995.6 kPa, x2 = 0.2 | 57.18
274.99 K, 5997.2 kPa, x2 = 0.2 | 87.563
274.99 K, 7998.9 kPa, x2 = 0.2 | 118.772
274.99 K, 10000 kPa, x2 = 0.2 | 150.404
274.99 K, 12005 kPa, x2 = 0.2 | 182.017
274.99 K, 14006 kPa, x2 = 0.2 | 213.01
274.99 K, 16009 kPa, x2 = 0.2 | 243.011
274.99 K, 18043 kPa, x2 = 0.2 | 272.044
274.99 K, 19430 kPa, x2 = 0.2 | 290.888
275.02 K, 996.58 kPa, x2 = 0.501 | 16.162
275.02 K, 1993.3 kPa, x2 = 0.501 | 33.323
275.02 K, 2996.6 kPa, x2 = 0.501 | 51.754
275.02 K, 3997.4 kPa, x2 = 0.501 | 71.374
275.02 K, 4998.7 kPa, x2 = 0.501 | 92.411
275.02 K, 5999.5 kPa, x2 = 0.501 | 114.98
275.02 K, 7003.4 kPa, x2 = 0.501 | 139.278
275.02 K, 8006 kPa, x2 = 0.501 | 165.225
275.02 K, 9125.5 kPa, x2 = 0.501 | 196.081
275.02 K, 10029 kPa, x2 = 0.501 | 222.169
275.02 K, 11018 kPa, x2 = 0.501 | 251.523
275.02 K, 12025 kPa, x2 = 0.501 | 281.541
275.02 K, 13025 kPa, x2 = 0.501 | 310.916
275.03 K, 14032 kPa, x2 = 0.501 | 339.405
275.03 K, 15032 kPa, x2 = 0.501 | 366.266
275.03 K, 15926 kPa, x2 = 0.501 | 388.806
275.04 K, 17027 kPa, x2 = 0.501 | 414.634
275.04 K, 17563 kPa, x2 = 0.501 | 426.437
299.95 K, 2996.2 kPa, x2 = 0.2 | 38.386
299.95 K, 4996.3 kPa, x2 = 0.2 | 64.833
299.95 K, 6997.1 kPa, x2 = 0.2 | 91.756
299.95 K, 8997.6 kPa, x2 = 0.2 | 118.906
299.95 K, 11032 kPa, x2 = 0.2 | 146.5
299.95 K, 13037 kPa, x2 = 0.2 | 173.362
299.95 K, 15002 kPa, x2 = 0.2 | 199.149
299.95 K, 17077 kPa, x2 = 0.2 | 225.549
299.95 K, 18151 kPa, x2 = 0.2 | 238.85
299.96 K, 492.88 kPa, x2 = 0.2 | 6.193
299.96 K, 984.74 kPa, x2 = 0.2 | 12.423
299.96 K, 995.87 kPa, x2 = 0.501 | 14.686
299.96 K, 15998 kPa, x2 = 0.501 | 308.658
299.97 K, 1995.1 kPa, x2 = 0.501 | 30.061
299.97 K, 2998.8 kPa, x2 = 0.501 | 46.195
299.97 K, 4000.2 kPa, x2 = 0.501 | 62.993
299.97 K, 5015.8 kPa, x2 = 0.501 | 80.785
299.97 K, 6023.7 kPa, x2 = 0.501 | 99.216
299.97 K, 7004.9 kPa, x2 = 0.501 | 117.9
299.97 K, 8009.1 kPa, x2 = 0.501 | 137.74
299.97 K, 9014.3 kPa, x2 = 0.501 | 158.299
299.97 K, 9993.3 kPa, x2 = 0.501 | 178.967
299.97 K, 9996.5 kPa, x2 = 0.501 | 178.959
299.97 K, 10996 kPa, x2 = 0.501 | 200.469
299.97 K, 11995 kPa, x2 = 0.501 | 222.215
299.97 K, 12998 kPa, x2 = 0.501 | 244.208
299.97 K, 13996 kPa, x2 = 0.501 | 266
299.97 K, 14996 kPa, x2 = 0.501 | 287.528
299.97 K, 16996 kPa, x2 = 0.501 | 329.04
299.97 K, 17997 kPa, x2 = 0.501 | 348.774
299.97 K, 19020 kPa, x2 = 0.501 | 368.091
299.97 K, 19970 kPa, x2 = 0.501 | 385.259
324.96 K, 1994 kPa, x2 = 0.2 | 23.265
324.96 K, 1994.1 kPa, x2 = 0.2 | 23.265
324.96 K, 3976.6 kPa, x2 = 0.2 | 46.775
324.96 K, 5997.1 kPa, x2 = 0.2 | 70.986
324.96 K, 7997.5 kPa, x2 = 0.2 | 95.062
324.96 K, 9999.3 kPa, x2 = 0.2 | 119.106
324.96 K, 12001 kPa, x2 = 0.2 | 142.924
324.96 K, 14002 kPa, x2 = 0.2 | 166.343
324.96 K, 16004 kPa, x2 = 0.2 | 189.249
324.96 K, 18002 kPa, x2 = 0.2 | 211.461
324.96 K, 19964 kPa, x2 = 0.2 | 232.536
324.98 K, 974.07 kPa, x2 = 0.501 | 13.176
324.98 K, 1991.5 kPa, x2 = 0.501 | 27.367
324.98 K, 2996.4 kPa, x2 = 0.501 | 41.83
324.98 K, 3995.3 kPa, x2 = 0.501 | 56.615
324.98 K, 4997.2 kPa, x2 = 0.501 | 71.872
324.98 K, 5995.1 kPa, x2 = 0.501 | 87.485
324.98 K, 6998.1 kPa, x2 = 0.501 | 103.583
324.98 K, 7998.2 kPa, x2 = 0.501 | 120.002
324.98 K, 9001.9 kPa, x2 = 0.501 | 136.826

— the NIST ThermoML archive (doi:10.1016/j.jct.2011.12.035)
